Columns and labels:
[1] = test system: trinitrobenzenesulfonic acid (TNBS)-induced colitis; assay: Colonic length and macroscopic appearance in TNBS-induced chronic colitis; format: in vivo, rat
Experimental: (§1) Chronic colitis was induced by weekly rectal injections of increasing doses of TNBS over 6 weeks (15, 30, 45, 60, 60, and 60 mg from day 0 to day 35), as previously described (4,12). Briefly, after food deprivation for 24 h, rats were anesthetized with an intraperitoneal injection of 1% isoflurane. TNBS was dissolved in ethanol (50%) and instilled into the colon using a cannula (0.25 mL), and then the rats were held upside down for 3 min to prevent escape of the intracolonic TNBS. Roflumilast was dissolved in dimethyl sulfoxide and diluted in 0.5% carboxymethyl cellulose sodium to a final concentration of 5.0 mg·kg^−1·day^−1 as previously described (13). Five groups of rats (n=8) were established: normal control (NC group), TNBS-treated (TNBS group, positive control), and three TNBS-treated groups that received oral sulfasalazine (SS group, 500 mg/kg) (14), oral roflumilast (by gastric gavage, OR group, 5 mg/kg), or rectal roflumilast (RR group, 5 mg/kg). Treatments were administered once daily in a volume of 200 μL for 15 days starting 48 h after the induction of colitis (from day 37) (15), and the control rats received equal amounts of vehicle. At the end of the treatment period, the rats were evaluated with the colitis activity score. To detect the effects of the treatments on systemic inflammatory processes, blood was collected for measurements of the proinflammatory mediators TNF-α, IL-2, and IL-6. At the end of the 15-day treatment period, the rats were sacrificed by cervical dislocation, and the colon was isolated, cleaned of feces, and measured for weight and length. Colonic myeloperoxidase (MPO) activity and glutathione (GSH) and malonaldehyde (MDA) levels were measured. The colon was examined macroscopically for gross changes and microscopically in sections stained with hematoxylin and eosin (H&E), Masson trichrome, and Periodic Acid Schiff (PAS) stains as well as KI-67 and TNF-α immunostaining. After the rats were sacrificed, their colon was excised, and its length was measured. The appearance of the colon regarding edema, ulceration, and necrosis was evaluated (17).

TNF-α = assay: Serum TNF-α ELISA in TNBS-induced colitis; format: in vivo, rat; details: means±SE, n = 8
Experimental: as §1, with “Blood” for “After the rats were sacrificed, their colon”, “collected through cardiac puncture. The serum was obtained” for “excised,”, “stored at −80° C. until analysis. […]” for “its length was measured. The appearance of the colon regarding edema, ulceration, and necrosis was evaluated (17).”

[2] = oral, once daily for 15 days, sulfasalazine 500 mg/kg, roflumilast 5 mg/kg
[3] = rectal, 5 mg/kg once daily for 15 days
[4] = oral, once daily for 15 days, SS 500 mg/kg, OR 5 mg/kg

SMILES | Colonic length [1, 2] | Colonic macroscopic appearance [1, 2] | Colonic macroscopic appearance [1, 3] | serum level of TNF-α (TNF-α; [4]) | serum level of TNF-α (TNF-α; [3])
O=C(Nc1c(Cl)cncc1Cl)c1ccc(OC(F)F)c(OCC2CC2)c1 [roflumilast] | more improvement than rectal roflumilast | moderate to marked improvement | mild improvement | 38.87 ± 2.33^a, b, f pg/mL | 79.37 ± 1.88^a, c, e pg/mL
O=C(O)c1cc(/N=N/c2ccc(S(=O)(=O)Nc3ccccn3)cc2)ccc1O [sulfasalazine] | greatest effect | marked improvement | – | 28.93 ± 0.5^b, d pg/mL | –

— patent US20240108610A1, “RECTAL ADMINISTRATION OF ROFLUMILAST FOR THE TREATMENT OF CROHN'S DISEASE” (King Abdulaziz University, priority 2022, published 2024)
